Measurements published in patent publication US9346741B2, “Polyamine transport selective therapeutic agents with enhanced stability” (University of Central Florida Research Foundation, Inc., priority 2012, dated 2016).
Where “and” joins values, the source holds several entries; their conditions need not be identical. Identical values can stand only once. Like-named read-outs stand apart in the source and are kept apart here. Marks after values point to notes of the source that are not given here.

What was measured:
CHO-MG* cells = assay: Cytotoxicity IC50 determination (MTS) in polyamine-transport-deficient CHO-MG* cells; assay type: cell-based, Chinese hamster; conditions: 48 h at 37° C.
Text: (§1) CHO cells were chosen along with a mutant cell line (CHO-MG*) to comment on how the synthetic conjugates gain access to the cells.^2c-e, 6 As discussed earlier, the CHO-MG cell line is polyamine-transport deficient and represents a model for alternative modes of entry (other than PTS) including passive diffusion or use of another transporter. The CHO cell line on the other hand, represents cells with high polyamine transport activity.^7, 10c A comparison of toxicity in these two CHO cell lines allowed for a screen that would detect selective use of the polyamine transporter. This is seen where high utilization of the PTS would be very toxic to CHO cells, however, there would not be the same level of toxicity found in CHO-MG cells.^2c-e, 6 Ultimately, a CHO-MG/CHO IC50 can be determined where a high ratio would be achieved for highly PTS selective compounds.
(§2) CHO and CHO-MG cells were grown in RPMI 1640 medium supplemented with 10% fetal calf serum and 1% penicillin/streptomycin. Note: the media must contain L-proline (2 μg/mL) for proper growth of the CHO-MG cells. MALME-3M cells were grown in RPMI 1640 medium supplemented with 10% FBS and 1% penicillin/streptomycin. […] Cells in early to mid-log phase were used.
(§3) Cell growth was assayed in sterile 96-well microtiter plates (Costar 3599, Corning, N.Y., USA). CHO and CHO-MG* cells were plated at 10,000 cells/mL. MALME-3M and MALME-3 cells were plated at 5,000 cells/mL. Drug solutions (10 μL per well) of appropriate concentration were added after an overnight incubation for each CHO cell line (90 μL). 48 h MALME-3M experiments were conducted using 10% Nu-Serum IV, and 96 h MALME-3M and MALME-3 experiments were conducted using 10% FBS. After exposure to the drug for 48 h (CHO, CHO-MG*, and MALME-3M) or 96 h (MALME-3M and MALME-3), cell growth was determined by measuring formazan
(§4) formation from 3-(4,5-dimethylthiazol-2-yl)-5-(3-carboxymethoxyphenyl)-2-(4-sulphenyl)-2H-tetrazolium) inner salt (MTS) using a SynergyMx Biotek microplate reader for absorbance ([…]) measurements.^24

CHO cells = assay: cells; assay type: cell-based; conditions: for IC50: 48 h at 37° C.; for MTD (μM) in CHO (maximum tolerated dose): hamster
Text: as §1, §2, §3, §4

[1] = test system: polyamine transport system (PTS), CHO-MG* vs CHO cells; assay: CHO-MG*/CHO IC50 ratio, a measure of PTS selectivity; assay type: cell-based, Chinese hamster; conditions: 48 h; for IC50 ratio w/AG (CHO-MG*/CHO): with 1 mM AG; for IC50 ratio w/o AG (CHO-MG*/CHO): without AG
Text: Compounds with high CHO-MG/CHO IC50 ratios are considered PTS selective.
as §1

MALME-3 cells [2] = assay: Cytotoxicity IC50 determination (MTS) in MALME-3 cells; assay type: cell-based, human; conditions: 96 h at 37° C., 1 mM AG, 10% FBS
Method: (§5) Armed with this insight, compounds 5a-8b were evaluated in the MALME-3M (melanoma) cell line and its non-cancerous counterpart MALME-3 obtained originally from the same patient. These matched cell lines provided a method to assess PTS selectivity for the cancer line (MALME-3M) over the non-cancerous cell line (MALME-3).
(§6) CHO and CHO-MG cells were grown in RPMI 1640 medium supplemented with 10% fetal calf serum and 1% penicillin/streptomycin. Note: the media must contain L-proline (2 μg/mL) for proper growth of the CHO-MG cells. MALME-3M cells were grown in RPMI 1640 medium supplemented with 10% FBS and 1% penicillin/streptomycin. All cells were grown at 37° C. under a humidified 5% CO2 atmosphere Aminoguanidine (1 mM) was added to the growth medium to prevent oxidation of the drugs by the enzyme (bovine serum amine oxidase) present in calf serum. Cells in early to mid-log phase were used.
as §3, §4

MALME-3M cells = assay: Cytotoxicity IC50 determination (MTS) in MALME-3M cells; assay type: cell-based, human
Method: as §5, with “(MALME-3). […]” for “(MALME-3).”
as §6, §3, §4

[3] = test system: MALME-3M (melanoma) vs MALME-3 (normal) cells; assay: MALME-3/MALME-3M IC50 ratio, a measure of selectivity; assay type: cell-based, human; conditions: 96 h; 1 mM AG
Text: These matched cell lines provided a method to assess PTS selectivity for the cancer line (MALME-3M) over the non-cancerous cell line (MALME-3).

[4] = test system: 60 human cancer cell lines; assay: NCI 60 cell-line screen; assay type: cell-based; conditions: 48 h; for effect on breast cancer cell lines in the NCI 60 cell-line screen / effect on melanoma cell lines in the NCI 60 cell-line screen: 10 μM
Method: Once compounds 6a-b, 7a-b, and 8a-8b were evaluated in CHO and CHO-MG*, these compounds were sent to the National Cancer institute (NCI) to conduct its 60 cell-line screen to determine if these compounds could also be potent anti-cancer agents for human cancer cell lines. […] As shown in FIGS. 2A-2C, dose response curves were generated based upon the 60 cell-line screen at different molar concentrations of each PTS targeting agent 6b, 7b, and 8b.
To generate FIGS. 2A-2C, the respective drug was dosed at 10 μM into each human cancer cell line and cell viability was assessed after a 48 h incubation at 37° C. in an environment of 5% CO2, 95% air and 100% relative humidity. A more descriptive methodology can be found at the NCI website: http://dtp.nci.nih.gov/branches/btb/ivclsp.html. Cell lines which gave bar graphs which extend to the right of the central line were more sensitive to the drug than cell lines which extended to the left of the center line.

[5] = test system: 60 human cancer cell lines; assay: NCI 60 cell-line screen; assay type: cell-based; conditions: 5-dose assay
[6] = test system: polyamine transport system (PTS), CHO-MG vs CHO cells; conditions: original CHO-MG line; cited from earlier work
in vitro = assay type: cell-based; conditions: Chinese hamster
Text: as §1, §2, §3, §4

MALME-3 cells [7] = assay: Spermidine rescue experiments in MALME-3 cells; assay type: cell-based, human; conditions: dosed near the IC50 value; increasing spermidine
Method: In order to validate that these drugs were toxic due to their use of the polyamine transport system, spermidine rescue experiments were conducted. Spermidine is a native polyamine and uses the PTS for cell entry. High concentrations of spermidine should outcompete the PTS-targeting drugs for cell entry. In this regard, spermidine when dosed at a non-toxic concentration should rescue the cells from the toxic effects of the PTS targeting agents. […] Both the anthryl and naphthyl systems when dosed at their IC50 concentrations gave >92% viability at 10 μM spermidine validating their use of the PTS. Rescue was observed from the initial 50% viability to >92% viability after co-dosing 10 μM spermidine.
As stated above, in an effort to determine if the cytotoxicities seen for compounds 6-8 were polyamine transport related, MALME-3M and MALME-3 were dosed near the IC50 value of each drug. These cells were also treated with increasing amounts of spermidine to see if it could outcompete compounds 6-8 for cellular entry and thus rescue the cells. […] This supports the premise that these compounds gain access to these cells primarily via the PTS. […] Since the viability of MALME-3M cells could be partially rescued by spermidine, compounds 8a and 8b may gain access via the PTS and via non-PTS related pathway(s).

[8] = test system: polyamine transport system (PTS) in L1210 cells; conditions: cited from earlier work
[9] = Cricetulus griseus, CHO-MG, 1 mM AG 24 h prior to drug addition, read-out: CHO-MG* IC50 (μM) w/AG
[10] = Cricetulus griseus, CHO-MG, without AG, read-out: CHO-MG* IC50 (μM) w/o AG
[11] = Cricetulus griseus, CHO, 1 mM AG 24 h prior to drug addition, read-out: CHO IC50 (μM) w/AG
[12] = Cricetulus griseus, CHO, without AG, read-out: CHO IC50 (μM) w/o AG
[13] = Homo sapiens, Malme-3M, 48 h at 37° C., 1 mM AG, 10% Nu-Serum IV, read-out: MALME-3M IC50 (μM) w/ AG
[14] = Homo sapiens, Malme-3M, 48 h at 37° C., without AG, 10% Nu-Serum IV, read-out: MALME-3M IC50 (μM) w/o AG
[15] = Homo sapiens, Malme-3M, 96 h at 37° C., 1 mM AG, 10% FBS, read-out: MALME-3M IC50
[16] = 1 mM AG 24 h prior to drug addition, read-out: CHO-MG* IC50 (μM) w/AG
[17] = without AG, read-out: CHO-MG* IC50 (μM) w/o AG
[18] = 1 mM AG 24 h prior to drug addition, read-out: CHO IC50 (μM) w/AG
[19] = without AG, read-out: CHO IC50 (μM) w/o AG
[20] = 48 h at 37° C., 1 mM AG, 10% Nu-Serum IV, read-out: MALME-3M IC50 (μM) w/ AG
[21] = 48 h at 37° C., without AG, 10% Nu-Serum IV, read-out: MALME-3M IC50 (μM) w/o AG
[22] = 96 h at 37° C., 1 mM AG, 10% FBS, read-out: MALME-3M IC50
[23] = Cricetulus griseus, CHO-MG, Table 4, 1 mM AG 24 h prior to drug addition, read-out: CHO-MG* IC50
[24] = Cricetulus griseus, CHO, Table 4, 1 mM AG 24 h prior to drug addition, read-out: CHO IC50

Row | SMILES | IC50 (CHO-MG* cells; [9]) [µM] | IC50 (CHO-MG* cells; [10]) [µM] | IC50 (CHO cells; [11]) [µM] | IC50 (CHO cells; [12]) [µM] | IC50 ratio w/AG (CHO-MG*/CHO) [1] | IC50 ratio w/o AG (CHO-MG*/CHO) [1] | IC50 (MALME-3 cells [2]; Homo sapiens, MALME-3) [nM] | IC50 (MALME-3M cells; [13]) [µM] | IC50 (MALME-3M cells; [14]) [µM] | IC50 (MALME-3M cells; [15]) [µM] | MALME-3/MALME-3M IC50 ratio [3] | effect on breast cancer cell lines in the NCI 60 cell-line screen [4] | effect on melanoma cell lines in the NCI 60 cell-line screen [4] | NCI 5-dose assay, MALME-3M cell line [5] | IC50 (CHO-MG* cells; [16]) [µM] | IC50 (CHO-MG* cells; [17]) [µM] | IC50 (CHO cells; [18]) [µM] | IC50 (CHO cells; [19]) [µM] | IC50 (MALME-3 cells [2]) [nM] | IC50 (MALME-3M cells; [20]) [µM] | further results
1 | CNCCCCNCCCCNCc1c2ccccc2c(CNCCCCNCCCCNC)c2ccccc12 [Compound 6b, N1,N1′-(Anthracene-9,10-diylbis(methylene))bis(N4-(4-(methylamino)butyl)butane-1,4-diamine)] | > 100 | > 100 | 0.083 | 0.084 | >1204 | >1190 | 1000 | 0.13 | 0.16 | 0.062 | 16 | exhibited an anti-proliferation effect in breast cancer cell lines, particularly the T-47D cell line | inhibited the proliferation of melanoma cell lines, particularly the MALME-3M cell line | dose dependent response |  |  |  |  |  |  | NCI 60 cell-line screen, overall result ([4]; no AG): cell-targeting specificity, especially for the MALME-3M cell line
2 | Cl.NCCCCNCCCCNCc1c2ccccc2cc2ccccc12 [Compound 5a, reference compound] |  |  |  |  | 43 and 42.8 | 1.4 |  |  |  |  | 3.1 |  |  |  | 13.7 | 2.2 | 0.32 | 1.5 | 830 | 0.48 | IC50 (MALME-3M cells; [21]): 0.29 µM; IC50 (MALME-3M cells; [22]): 0.27 µM; CHO-MG/CHO IC50 ratio [6]: 150 and 148
3 | CNCCCCNCCCCNCc1ccc(CNCCCCNCCCCNC)c2ccccc12 [Compound 7b, N1,N1′-(Naphthalene-1,4-diylbis(methylene))bis(N4-(4-(methylamino)butyl)butane-1,4-diamine)] | > 100 | > 100 | 0.044 | 0.039 | >2272 | >2564 | 820 | 0.1 | 0.17 | 0.014 | 59 | exhibited an anti-proliferation effect in breast cancer cell lines, particularly the T-47D cell line | inhibited the proliferation of melanoma cell lines, particularly the MALME-3M cell line | dose dependent response |  |  |  |  |  |  | 
4 | NCCCCNCCCCNCc1cccc(CNCCCCNCCCCN)c1 [Compound 34a, N^1,N^1′-(1,3-phenylenebis(methylene))bis(N^4-(4-aminobutyl)butane-1,4-diamine)] |  |  |  |  | 1072 |  |  |  |  |  |  |  |  |  |  |  |  |  |  |  | IC50 (CHO-MG* cells; [23]): 30 µM; viability at 48 h, 0.01 μM (in vitro): ~90%; IC50 (CHO cells; [24]): 0.028 µM; MTD (μM) in CHO (maximum tolerated dose) (CHO cells): 0.01^f μM
5 | NCCCCNCCCCNCCCCNCc1cccc(CNCCCCNCCCCNCCCCN)c1 [Compound 34b, N^1,N^1′-(1,3-phenylenebis(methylene))bis(N^4-(4-((4-aminobutyl)amino)butyl)butane-1,4-diamine)] |  |  |  |  | 335 |  |  |  |  |  |  |  |  |  |  |  |  |  |  |  | IC50 (CHO-MG* cells; [23]): 13.4 µM; viability at 48 h, 0.01 μM (in vitro): ~90%; IC50 (CHO cells; [24]): 0.04 µM; MTD (μM) in CHO (maximum tolerated dose) (CHO cells): 0.01^g μM
6 | Cl.NCCCCNCCCCNCc1ccc(CNCCCCNCCCCN)cc1 [Compound 8a] |  |  |  |  | 727 | 5.5 |  |  |  |  | 18 |  |  |  | 19.6 | 56.5 | 0.027 | 10.3 | 90 | 0.01 | IC50 (MALME-3M cells; [21]): 0.4 µM; IC50 (MALME-3M cells; [22]): 0.005 µM; rescue by exogenous spermidine in MALME-3 (MALME-3 cells [7]): complete rescue; Ki ([8]; read-out: Ki in L1210 cells): 520 nM; Ki ([8]; unit inferred, read-out: Ki values in L1210 cells): 490 ± 20 nM
